As usually defined, the melting point is the temperature, or range, at which the solid turns liquid.

Series [1] in a line: Nitroxyl production via N2O headspace analysis (GC). Particulars: PBS, 37° C. The source says:
Nitrous oxide (N2O) is produced via the dimerization and dehydration of HNO, and is the most common marker for nitroxyl production (Fukuto et al., Chem. Res. Toxicol. 18:790-801 (2005)). […] Using either nitrous oxide gas or Angeli's salt (AS) as a standard, the relative amounts of N2O released from N-hydroxymethanesulfonamide nitroxyl donating compounds was examined via gas chromatography (GC) headspace analysis.
A procedure for determining the relative amounts of N2O released from N-hydroxymethanesulfonamide nitroxyl donating compounds is as follows. GC was performed on an Agilent gas chromatograph equipped with a split injector (10:1 splitting), microelectron capture detector, and a HP-MOLSIV 30 m×0.32 mm×25 μm molecular sieve capillary column. Helium was used as the carrier (4 mL/min) gas and nitrogen was used as the make-up (20 mL/min) gas. […]
All determinations used a batch of nominal 20 mL headspace vials with volumes pre-measured for sample uniformity (actual vial volume varied by ≤2.0% relative standard deviation (n=6)). The average vial volume for the batch was determined from six randomly-selected vials by calculating the weight difference between the capped and sealed empty (i.e., air-filled) vial and the capped and sealed deionized water-filled vial using the known density of deionized water, then averaging. […]

The nature of series [2]: In vitro stability in dog plasma. In kind it is in vitro ADME. As to conditions: male, pH 7.4, 37° C., read-out: T1/2 (minutes) Dog. The method, then:
(§1) Certain compounds from Table 1 were tested for their stability in plasma. The assay system comprised (i) PBS, or plasma from rat, dog or human (at least 3 donors, male, pooled) at pH 7.4, and (ii) for tests conducted in plasma, an anticoagulant (sodium heparin or sodium citrate). Each test compound (5 μM) was incubated in PBS or plasma at 37° C. on a THERMOMIXER® with shaking Three samples (n=3) were taken at each of seven sampling time points: 0, 10, 30, 60, 90, 180 and 360 minutes. The samples were immediately combined with 3 volumes (i.e., 3 times the volume of PBS or plasma) of acetonitrile containing 1% formic acid and an internal standard to terminate the reaction. AB SCIEX API 3000 LC-MS/MS analysis of the test compounds was performed without a standard curve. Half-lives (T1/2) of the test compounds were determined from graphs of the percent remaining values using the peak area response ratio.

A short description of series [3]: Solid-state stability (appearance, HPLC purity) on storage. It is filed as physicochemical. As to conditions: 40° C., 70% RH. The method, then: Solid, powdered samples of compound 2 (1-(4-chlorophenyl)-N-hydroxymethanesulfonamide) were sealed in double polyethylene bags and stored at 40° C., 70% relative humidity (RH) for up to 3 months. After 2 weeks, 1 month, 2 months, and 3 months of storage, the samples were analyzed for visual appearance and/or purity, as determined by high performance liquid chromatography (HPLC). The HPLC measurement conditions were as follows: • Column: PrimeSep AB, 150×4.6 mm, 5 μm • Injection Volume: 10 μL • Detection Wavelength: 220 nm • Mobile Phase A: 0.3% Trifluoroacetic acid (TFA) in deionized water (DI-H2O) • Mobile Phase B: 0.2% TFA in acetonitrile • Diluent: Acetonitrile • Gradient:
• Flow Rate: 1.0 mL/min • Column Temperature: 30° C.

The nature of series [4]: In vitro stability in human plasma. In kind it is in vitro ADME. As to conditions: male, pH 7.4, 37° C., read-out: T1/2 (minutes) Human. The protocol: as §1
The nature of series [5]: In vitro stability in rat plasma. In kind it is in vitro ADME. Particulars: male, pH 7.4, 37° C., read-out: T1/2 (minutes) Rat. The method, then: as §1

Compound `O=[N+]([O-])c1ccccc1CS(=O)(=O)NO` [Compound 1, N-Hydroxy-1-(2-nitrophenyl)methanesulfonamide] showed a melting point of 163 °C. For the same compound, in series [1], the “Relative N2O Yield (90 minute incubation)” value is reported as 37%. Besides, the half-life at 5 μM in series [2] was found to be 26 min.

Turning to `O=S(=O)(Cc1ccc(Cl)cc1)NO` [Compound 2, 1-(4-Chlorophenyl)-N-hydroxymethanesulfonamide], the melting point is 144 °C. Also, in series [1], the “Relative N2O Yield (90 minute incubation)” value was found to be 24%. Moreover, in series [3] (0 Weeks), the Appearance entry is reported as “White”, the “HPLC Purity” value is recorded as 98.912%, the “HPLC peak at RRT 0.88” value turned out to be 0.368% and the “HPLC peak at RRT 1.23” value came to 0.087%. For the same compound, the “HPLC peak at RRT 1.35” value in series [3] (0 Weeks) worked out at 0.633%. Also, in series [3] (1 Month), the Appearance result is on record as “White”, the “HPLC Purity” value is 95.579%, the “HPLC peak at RRT 0.88” value amounted to 0.966% and the “HPLC peak at RRT 1.54” value came out at 1.959%. Besides, the “HPLC peak at RRT 1.76” value in series [3] (1 Month) was determined as 0.502%. In series [3] (2 Months), the Appearance entry was “Off white”, the “HPLC Purity” value is 82.665%, the “HPLC peak at RRT 0.88” value is recorded as 3.600% and the “HPLC peak at RRT 1.53” value is on record as 6.432%. Moreover, in series [3] (2 Months), the “HPLC peak at RRT 1.77” value worked out at 3.234%. In series [3] (2 Weeks), the Appearance entry was “White”. In series [3] (3 Months), the Appearance entry is “Off white”, the “HPLC Purity” value worked out at 76.661%, the “HPLC peak at RRT 0.88” value was found to be 4.108% and the “HPLC peak at RRT 1.50” value was determined as 10.123%. In addition, the “HPLC peak at RRT 1.77” value in series [3] (3 Months) is given as 3.165%. The half-life at 5 μM in series [4] stood at 102 min. Besides, the half-life at 5 μM in series [5] was 114 min. Besides, the half-life at 5 μM in series [2] was found to be 62 min.

The values are drawn from patent US9932303B2, “N-hydroxymethanesulfonamide nitroxyl donors” (Cardioxyl Pharmaceuticals, Inc., priority 2014, dated 2018).
